Data: patent US20250388582A1, “NOVEL BICYCLIC HETEROARYL COMPOUND AND USE THEREOF” (ILDONG PHARMACEUTICAL CO., LTD., priority 2022, published 2025)

Experiments:
human GST-PIKFYVE = target: T1, human GST-PIKFYVE (Homo sapiens, UniProt Q9Y2I7); test: ADP-Glo kinase assay, enzyme inhibition activity against human PIKFYVE (Carna biosciences); assay type: biochemical; conditions: inhibitory activity at final compound concentration 10 nM; 1 hour at room temperature
T1 construct: GST; purchased Carna biosciences 11-118
How it was run: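 Human GST-PIKFYVE (glutathione Sepharose-purified) was reacted with substrate and ATP for 1 h at room temperature in 50 mM MOPS, 1 mM DTT, pH 7.2, with compound at 10 nM final. ADP formed was read by ADP-Glo luminescence; inhibition was calculated against no-enzyme (100%) and no-compound (0%) controls.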

PIKFYVE = target: T2, PIKFYVE (Homo sapiens, UniProt Q9Y2I7); test: NanoBRET TE Intracellular Kinase Assay, interaction of PIKFYVE and compounds in HEK293 cells; assay type: cell-based; conditions: IC50 class from BRET; HEK293 cells expressing PIKFYVE-NanoLuc; 2 hours incubation
T2 construct: host or cells: HEK293 (ATCC, CRL-1573)
How it was run: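 HEK293 cells transiently expressing a PIKFYVE-NanoLuc fusion were incubated 2 h at 37 °C, 5% CO2 with compound plus NanoBRET tracer. BRET was read after adding Nano-Glo substrate, giving intracellular target engagement by tracer displacement.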

[1] = Microsomal metabolic stability assay; assay type: in vitro ADME, human or CD1 male mouse; conditions: Clint class; 1 μM compound, 0.5 mg/ml microsomes, NADPH, UDPGA, Alamethicin; species not given
Procedure: The microsomal metabolic stability assay was performed using pooled human or CD1 male mouse interspecies microsomes. Supplemental cofactors (NADPH, UDPGA) and microsomal membrane pore-forming factor (Alamethicin) were added to promote cytochrome P450 (CYP), UGT reactivity to the target compound. Test compounds (1 μM incubation concentration) and microsomes (0.5 mg/ml incubation concentration) were diluted in 0.1 M phosphate buffer, pH 7.4, and incubated (37° C.). The reaction was initiated by the addition of NADPH (1 mM), UDPGA (1 mM) and Alamethicin (25 μg/mg). The incubation times were 0, 5, 15, 30, and 45 minutes, and at each time point, the reaction was terminated by adding acetonitrile containing internal standard (IS)(1:3 ratio). The plate was then sealed, centrifuged (3000 rpm, 20 min, 4° C.), and the supernatant was analyzed by LC-MS/MS. Hepatic extraction ratio values were calculated from the measured in vitro clearance and Intrinsic clearance (Clint) values were calculated from the assay results, and the respective Clint values were categorized into Low, Medium, and High categories based on the reference document (ref. Prostaglandins & other lipid mediators 136 (2018): 90-95).

T2 sequence (Q9Y2I7 whole entry): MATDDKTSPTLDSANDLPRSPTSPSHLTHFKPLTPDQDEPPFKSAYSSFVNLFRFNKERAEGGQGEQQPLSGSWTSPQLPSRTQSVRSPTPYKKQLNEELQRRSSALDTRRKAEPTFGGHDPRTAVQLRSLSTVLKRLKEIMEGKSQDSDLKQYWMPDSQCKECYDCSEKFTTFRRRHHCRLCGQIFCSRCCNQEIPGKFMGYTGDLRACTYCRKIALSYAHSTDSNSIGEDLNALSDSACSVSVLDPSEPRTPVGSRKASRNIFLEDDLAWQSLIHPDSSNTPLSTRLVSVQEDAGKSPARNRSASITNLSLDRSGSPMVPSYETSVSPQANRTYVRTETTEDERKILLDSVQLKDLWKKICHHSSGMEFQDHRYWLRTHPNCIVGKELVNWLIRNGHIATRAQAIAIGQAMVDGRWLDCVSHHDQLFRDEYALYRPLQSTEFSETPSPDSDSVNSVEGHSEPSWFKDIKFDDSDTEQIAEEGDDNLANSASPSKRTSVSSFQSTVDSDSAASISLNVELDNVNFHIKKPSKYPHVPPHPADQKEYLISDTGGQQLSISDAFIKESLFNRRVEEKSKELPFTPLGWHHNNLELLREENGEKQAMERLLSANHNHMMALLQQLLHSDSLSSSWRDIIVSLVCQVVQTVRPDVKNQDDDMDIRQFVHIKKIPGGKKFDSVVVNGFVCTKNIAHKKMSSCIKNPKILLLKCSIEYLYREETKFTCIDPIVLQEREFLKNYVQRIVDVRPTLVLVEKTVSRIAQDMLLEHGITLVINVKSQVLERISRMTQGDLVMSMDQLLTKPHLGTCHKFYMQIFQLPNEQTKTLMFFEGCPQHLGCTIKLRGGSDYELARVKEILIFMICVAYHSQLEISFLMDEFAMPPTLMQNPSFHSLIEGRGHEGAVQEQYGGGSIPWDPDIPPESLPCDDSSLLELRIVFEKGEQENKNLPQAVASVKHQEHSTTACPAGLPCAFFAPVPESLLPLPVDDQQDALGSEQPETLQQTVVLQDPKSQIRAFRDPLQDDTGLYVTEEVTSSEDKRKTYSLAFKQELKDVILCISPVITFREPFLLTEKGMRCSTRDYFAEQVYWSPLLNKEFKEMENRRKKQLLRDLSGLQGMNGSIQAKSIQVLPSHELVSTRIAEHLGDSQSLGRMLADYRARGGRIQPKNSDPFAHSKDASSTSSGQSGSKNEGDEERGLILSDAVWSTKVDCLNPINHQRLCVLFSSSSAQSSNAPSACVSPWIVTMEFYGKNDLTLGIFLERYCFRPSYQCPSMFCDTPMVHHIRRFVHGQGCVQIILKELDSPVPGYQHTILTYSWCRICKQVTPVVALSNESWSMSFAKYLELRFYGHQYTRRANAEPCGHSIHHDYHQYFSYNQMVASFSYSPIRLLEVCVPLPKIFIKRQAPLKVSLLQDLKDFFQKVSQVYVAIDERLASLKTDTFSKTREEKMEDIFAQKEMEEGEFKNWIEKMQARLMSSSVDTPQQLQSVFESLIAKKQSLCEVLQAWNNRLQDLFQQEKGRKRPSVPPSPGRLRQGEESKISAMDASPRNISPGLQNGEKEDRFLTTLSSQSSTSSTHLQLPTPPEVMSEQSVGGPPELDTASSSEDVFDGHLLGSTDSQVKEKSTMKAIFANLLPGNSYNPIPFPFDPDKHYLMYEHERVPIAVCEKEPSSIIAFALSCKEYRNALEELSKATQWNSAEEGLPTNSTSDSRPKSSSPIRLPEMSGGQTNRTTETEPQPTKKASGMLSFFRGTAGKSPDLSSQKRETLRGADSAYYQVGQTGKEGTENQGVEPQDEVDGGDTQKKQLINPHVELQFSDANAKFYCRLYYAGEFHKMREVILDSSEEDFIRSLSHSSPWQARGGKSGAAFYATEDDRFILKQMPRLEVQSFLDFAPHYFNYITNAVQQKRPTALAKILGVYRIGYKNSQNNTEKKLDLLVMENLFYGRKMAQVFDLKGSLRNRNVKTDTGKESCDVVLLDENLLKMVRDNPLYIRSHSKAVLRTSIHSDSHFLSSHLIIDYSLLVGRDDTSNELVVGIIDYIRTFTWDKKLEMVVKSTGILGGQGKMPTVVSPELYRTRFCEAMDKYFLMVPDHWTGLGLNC
T1 sequence (Q9Y2I7 whole entry): as above

Structure (SMILES) | ADP-Glo kinase assay (%, 10 nM) (human GST-PIKFYVE) [%] | IC50 (PIKFYVE) [nM] | Microsomal metabolic stability [1]
Cc1cccc(/C=N/n2cnc3c(Nc4ccncc4)nc(N4CCOCC4)nc32)c1 [Example 166, (E)-9-((3-methylbenzylidene)amino)-2-morpholino-N-(pyridin-4-yl)-9H-purin-6-amine] | 90.77 | ≤ 10 | medium
Cc1cccc(/C=N/Nc2nc(N3CCOCC3)nc3c2ncn3-c2cccc(OC(F)(F)F)c2)c1 [Example 128, (E)-4-(6-(2-(3-methylbenzylidene)hydrazinyl)-9-(3-(trifluoromethoxy)phenyl)-9H-purin-2-yl)morpholine] | 65.10 | ≤ 10 | Low (Low <8.8,)
Cc1cccc(/C=N/Nc2nc(N3CCOCC3)nc3c2ncn3-c2sc(C)nc2C)c1 [Example 111, (E)-4-(9-(2,4-dimethylthiazol-5-yl)-6-(2-(3-methylbenzylidene)hydrazinyl)-9H-purin-2-yl)morpholine] | 89.77 | ≤ 10 | Medium (Medium 8.8~48,)
Cc1ccc(C(=O)Cn2cnc3c(N/N=C/c4cccc(C)c4)nc(N4CCOCC4)nc32)cc1 [Example 42, (E)-2-(6-(2-(3-methylbenzylidene)hydrazinyl)-2-morpholino-9H-purin-9-yl)-1-(p-tolyl)ethan-1-one] | 81.60 | ≤ 10 | Low (Low <8.8,)
Cc1cccc(-c2ccn(-c3nc(N4CCOCC4)nc4c3ncn4CC(=O)c3ccccn3)n2)c1 [Example 64, 2-(2-morpholino-6-(3-(m-tolyl)-1H-pyrazol-1-yl)-9H-purin-9-yl)-1-(pyridin-2-yl)ethan-1-one] | 82.48 | ≤ 10 | Medium (Medium 8.8~48,)
Cc1cccc(/C=N/Nc2nc(N3CCOCC3)nc3c2ncn3CC(=O)c2ccccc2C(F)(F)F)c1 [Example 43, (E)-2-(6-(2-(3-methylbenzylidene)hydrazinyl)-2-morpholino-9H-purin-9-yl)-1-(2-(trifluoromethyl)phenyl)ethan-1-one] | 80.86 | ≤ 10 | Medium (Medium 8.8~48,)
Cc1cccc(/C=N/Nc2nc(N3CCOCC3)nc3c2ncn3-c2ccnc(C)c2)c1 [Example 140, (E)-4-(6-(2-(3-methylbenzylidene)hydrazinyl)-9-(2-methylpyridin-4-yl)-9H-purin-2-yl)morpholine] | 92.50 | ≤ 10 | Medium (Medium 8.8~48,)

Next, values leading:

ADP-Glo kinase assay (%, 10 nM) (human GST-PIKFYVE) [%] | IC50 (PIKFYVE) [nM] | Microsomal metabolic stability [1] | Structure (SMILES)
87.21 | ≤ 10 | Low (Low <8.8,) | Cc1cccc(/C=N/Nc2nc(N3CCOCC3)nc3c2ncn3-c2cccc(C#N)c2)c1 [Example 126, (E)-3-(6-(2-(3-methylbenzylidene)hydrazinyl)-2-morpholino-9H-purin-9-yl)benzonitrile]
88.29 | ≤ 10 | medium | Cc1cccc(/C=N/Nc2nc(N3CCOCC3)nc3c2ncn3-c2cccc(C)n2)c1 [Example 141, (E)-4-(6-(2-(3-methylbenzylidene)hydrazinyl)-9-(6-methylpyridin-2-yl)-9H-purin-2-yl)morpholine]
71.16 | 10 to 20 | Medium (Medium 8.8~48,) | Cc1cccc(/C=N/Nc2nc(N3CCOCC3)nc3c2nc(C)n3CC(=O)c2ccccn2)c1 [Example 157, (E)-2-(8-methyl-6-(2-(3-methylbenzylidene)hydrazinyl)-2-morpholino-9H-purin-9-yl)-1-(pyridin-2-yl)ethan-1-one]
85.95 | ≤ 10 | Medium (Medium 8.8~48,) | Cc1cccc(/C=N/Nc2nc(N3CCOCC3)nc3c2ncn3-c2cccnc2)c1 [Example 96, (E)-4-(6-(2-(3-methylbenzylidene)hydrazinyl)-9-(pyridin-3-yl)-9H-purin-2-yl)morpholine]
90.82 | ≤ 10 | Medium (Medium 8.8~48,) | Cc1cccc(/C=N/Nc2nc(N3CCOCC3)nc3c2ncn3CC(=O)c2ccccn2)c1 [Example 23, (E)-2-(6-(2-(3-methylbenzylidene)hydrazinyl)-2-morpholino-9H-purin-9-yl)-1-(pyridin-2-yl)ethan-1-one]
87.32 | ≤ 10 | Medium (Medium 8.8~48,) | Cc1cccc(/C=N/Nc2nc(N3CCOCC3)nc3c2ncn3-c2cccc(Cl)c2)c1 [Example 122, (E)-4-(9-(3-chlorophenyl)-6-(2-(3-methylbenzylidene)hydrazinyl)-9H-purin-2-yl)morpholine]
81.70 | ≤ 10 | Medium (Medium 8.8~48,) | Cc1cccc(/C=N/Nc2nc(N3CCOCC3)nc3c(-c4cccnc4)cccc23)c1 [Example 215, (E)-4-(4-(2-(3-methylbenzylidene)hydrazinyl)-8-(pyridin-3-yl)quinazolin-2-yl)morpholine]
